Format in all cases: cell-based
In one assay the target is T1, human TLR7 (Homo sapiens, UniProt Q9NYK1).
T1 construct: host or cells: HEK293 (HEK-Blue hTLR7)
T1 sequence (Q9NYK1 27-1049): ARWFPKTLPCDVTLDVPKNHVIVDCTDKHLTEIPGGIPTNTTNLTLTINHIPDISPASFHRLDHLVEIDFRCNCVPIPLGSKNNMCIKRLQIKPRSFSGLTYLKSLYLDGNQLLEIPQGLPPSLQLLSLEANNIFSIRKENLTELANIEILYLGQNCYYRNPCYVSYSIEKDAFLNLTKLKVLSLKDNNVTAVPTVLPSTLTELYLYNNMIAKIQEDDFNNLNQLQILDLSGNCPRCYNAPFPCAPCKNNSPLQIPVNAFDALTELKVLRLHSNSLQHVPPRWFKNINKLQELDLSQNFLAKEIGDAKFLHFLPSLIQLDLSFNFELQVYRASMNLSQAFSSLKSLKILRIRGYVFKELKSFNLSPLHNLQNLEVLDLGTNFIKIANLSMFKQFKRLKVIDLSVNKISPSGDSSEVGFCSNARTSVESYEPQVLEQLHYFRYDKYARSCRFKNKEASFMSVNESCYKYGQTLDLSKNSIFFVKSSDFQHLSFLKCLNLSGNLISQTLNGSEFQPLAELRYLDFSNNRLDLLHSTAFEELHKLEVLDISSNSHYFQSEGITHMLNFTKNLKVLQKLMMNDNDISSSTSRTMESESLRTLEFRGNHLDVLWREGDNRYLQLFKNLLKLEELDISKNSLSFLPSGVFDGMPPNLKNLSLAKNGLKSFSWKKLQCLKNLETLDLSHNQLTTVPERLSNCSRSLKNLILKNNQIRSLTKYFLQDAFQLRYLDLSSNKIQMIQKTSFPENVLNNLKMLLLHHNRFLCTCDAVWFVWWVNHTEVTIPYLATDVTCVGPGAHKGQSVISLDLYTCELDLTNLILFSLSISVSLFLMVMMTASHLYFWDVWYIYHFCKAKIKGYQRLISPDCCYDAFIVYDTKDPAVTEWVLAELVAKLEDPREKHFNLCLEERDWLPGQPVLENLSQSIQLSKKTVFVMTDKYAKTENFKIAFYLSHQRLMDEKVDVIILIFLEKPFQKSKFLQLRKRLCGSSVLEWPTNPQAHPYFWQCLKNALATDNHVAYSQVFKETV
The assay is described as follows: HEK-Blue hTLR7 reporter cell assay (SEAP, NF-kB/AP-1) for stimulation of human TLR7. The settings on record: HEK-Blue hTLR7 cells, 24 h incubation, SEAP readout; read-out: TLR7_EC50. The gist of the method: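 HEK293 cells expressing hTLR7 with NF-κB/AP-1-driven SEAP reporter, seeded 3.10E4 cells/well, pre-incubated 18–24 h, then exposed to 3-fold compound dilutions (0.01–20 μM) for 24 h at 37 °C. Supernatant SEAP read with QUANTI-Blue; EC50 as concentration giving 50% activation.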

The next assay relates to IFN-α2a. The assay is described as follows: IFN-α2a cytokine activation in human PBMC (MSD assay). Conditions: Homo sapiens, PBMC, 24 h. As to the method: (§1) The other below tests involving measuring the in vitro activity of some compounds of the disclosure on cytokines IFN-α2a, IL-6, IL29 and TNF-α were carried out using human PBMC (PBMCs).
(§2) The activity described below, with respect to TLR7, TLR8, IFN-α2a, IL-6, IL29 and TNF-α, is given by the half maximal effective concentration (EC50), which corresponds to the concentration required to obtain a 50% of the activation. The lower the EC50, the less the concentration of the compound is required to produce 50% of maximum activation and the higher the potency.
(§3) In Vitro Assay to Determine IFN-α2a, IL-6, IL29 and TNF-α Cytokine Activation:
(§4) Peripheral blood mononuclear cells were isolated by Ficoll density gradient centrifugation from peripheral blood samples obtained from healthy donors (EFS). Isolated PBMCs are washed twice with PBS and resuspended in RPMI-1640 medium supplement with 10% fetal bovine serum (FBS) at 5.10^5 cells/well in a 96-well plate. The cells were then incubated with the compounds to test at various doses (20 μM to 4.8.10-6 μM final) for 24 h at 37° C., 5% CO2. After 24 h treatment, the plates are centrifuged and the supernatant were collected and assayed for cytokines IFN-α2a, IL-6, IL29 and TNF-α using the Meso Scale Discovery (MSD) assay platform according to the manufacturer's instructions. Briefly, 25 μL of cell culture supernatants were incubated for 1 h at Room Temperature (RT) in custom Multi-Spot 96-well plates prior coated with capture antibodies. After washing, SULFO-TAG® labeled detection antibodies were added to each of the wells and incubated for 1 h RT before adding a read buffer.

Another assay has as its system IL-6. The assay is described as follows: IL-6 cytokine activation in human PBMC (MSD assay). Conditions: Homo sapiens, PBMC, 24 h, read-out: IL6 EC50. The procedure:
as §1, §2, §3, §4

A further assay deals with IL29. The assay is described as follows: IL29 cytokine activation in human PBMC (MSD assay). Conditions: Homo sapiens, PBMC, 24 h. As to the method:
as §1, §2, §3, §4

Another assay concerns TNF-α. The assay is described as follows: TNF-α cytokine activation in human PBMC (MSD assay). Conditions: Homo sapiens, PBMC, 24 h. The procedure: as §1, §2, §3, §4

Consider one compound from patent US12583861B2, “Derivatives of imidazo[4,5-d]pyridazine, their preparation and their therapeutic application” (SANOFI, priority 2021, dated 2026).

Molecules are shown by their SMILES.

Turning to `CCCCc1nc2c(N)nnc(OC(C)C)c2n1C[C@H]1CC[C@H](CN)CC1` [Compound 20], the EC50 at human TLR7 came out at 28 nM; in the assay on IFN-α2a, 0.3 nM; in the assay on IL-6, 83 nM; with IL29 it was 0.3 nM; in the assay with TNF-α it was 2400 nM.
